Measurements reported in patent US7598258B2, “Quinoline derivatives and quinazoline derivatives inhibiting autophosphorylation of macrophage colony stimulating factor receptor” (Kirin Beer Kabushiki Kaisha, priority 2002, dated 2009).

Assays:
BAC-1.2F5 cell line = test: Inhibition of M-CSF-dependent cell growth of macrophage-like cell line BAC-1.2F5 (MTS); format: cell-based, mouse; details: 72 hr, M-CSF 50 ng/ml, FIG. 1
Description: Macrophage-like cell line BAC-1.2F5 which expresses c-fms as a M-CSF receptor on cell membranes (CLAUDIA M. et al., J. Cell. Physiol., 130, 420-427 (1987), “Isolation and Characterization of a Cloned Growth Factor Dependent Macrophage Cell Line, BAC1.2F5”) was cultured at 37° C. in a DMEM medium containing L-cell supernatant and 10% fetal calf serum (purchased from GIBCO BRL) in a 5% CO2 incubator until about 50 to 70% confluent. The harvested cells were inoculated into wells, each containing a 10% fetal calf serum-containing DMEM medium with human recombinant M-CSF being added thereto to a final concentration of 50 ng/ml, in a 96-well flat-bottom plate at a density of 5.0×10^3 per well, and cultured at 37° C. for 24 hr. A test compound dissolved in dimethyl sulfoxide was then added to each well to a target concentration, and cells were incubated at 37° C. in a 5% CO2 incubator for 72 hr. Thereafter, 20 μl of an MTS reagent (purchased from Promega) was added to each well, followed by incubation at 37° C. in a 5% CO2 incubator for 2 hr. Thereafter, absorbance at 490 nm was measured with a microplate reader. The cell growth rate with the addition of the test compound was determined by presuming the absorbance without the addition of the test compound and with the addition of M-CSF to be 100% cell growth and the absorbance without the addition of the test compound and M-CSF to be 0% cell growth. The concentration of the test compound was varied on several levels, and the cell growth rate in each case was calculated.

[1] = system: osteoclast differentiation; test: Osteoclast differentiation-inducing test by cocultivation of mouse bone marrow cells and osteoblast-like cell line KS483 (TRAP activity); format: cell-based; details: 6 days coculture with 1,25(OH)2VD3, FIG. 2
Description: Mouse osteoblast-like cell line KS483 ([…] T. et al., Bone, 19, 429-436 (1996), “Subcloning of Three Osteoblastic Cell with Distinct Differentiation Phenotypes from the Mouse Osteoblastic Cell line KS-4”) was cultured in an α-MEM medium containing a 10% fetal calf serum (purchased from GIBCO BRL) until about 90% confluent. The cells were seeded into wells, each containing the same medium containing a 10% fetal calf serum, in a 48 well flat-bottom plate at a density of 2.0×10^3 per well. […] At the same time, the TRAP activity was evaluated by the measurement of enzyme activity using p-nitrophenylphosphate (SIGMA104 phosphatase substrate; SIGMA; hereinafter referred to as “PNP”). […] After stirring, 50 μl of 0.5 N NaOH was further added, and 100 μl of the reaction solution in each well was dispensed in a 96 well flat-bottom plate, and absorbance at 405 nm was then measured with a microplate reader. For each well, TRAP activity was measured by presuming the absorbance in the case of culture without the addition of the test compound and with the addition of only KS483 and mouse bone marrow cells in the presence of 1,25(OH)2VD3 to 100% TRAP activity and the absorbance without the addition of the test compound and the mouse bone marrow cells to 0% TRAP activity. […]

[2] = system: bone metastasis of A375 human melanoma cells; test: Nude mouse bone metastasis model using human melanoma cells (A375); format: in vivo, nude mice; details: oral 40 mg/kg/day (20 mg twice a day), 28 days, p<0.01 vs. vehicle control, FIG. 3
Description: From the next day of the transplantation, for 28 days twice a day, the test compound was orally administered to the treatment group at 40 mg/kg/day, and the medium was orally administered to the control group. On 21 and 28 days after the transplantation, the mice were radiographed. For the images thus obtained, the bone resorption pore area in femora and fibiae attributable to bone metastasis of melanoma in each individual were calculated with an image analysis software (Image Gauge, FUJI FILM) to determine the average value for each group. The drug efficacy was evaluated by comparing the area of the test compound administered group with the area of the control group.

| Compound | inhibition of M-CSF-dependent cell growth of BAC-1.2F5 (BAC-1.2F5 cell line) | inhibition of osteoclast differentiation (TRAP activity) [1] | inhibition of expansion of bone resorption area involved in bone metastasis of melanoma [2] |
| --- | --- | --- | --- |
| COc1cc(Oc2ccnc3cc(OC)c(OC)cc23)ccc1NC(=O)NC(C)c1nccs1 (centres unmarked) [Example 74, N-{4-[(6,7-Dimethoxy-4-quinolyl)oxy]-2-methoxyphenyl}-N′-[1-(1,3-thiazol-2-yl)ethyl]urea] | concentration-dependent inhibition | concentration-dependent inhibition | inhibiting the expansion of bone resorption area |
| COc1cc(Oc2ccnc3cc(OC)c(OC)cc23)ccc1NC(=O)N[C@@H](C)c1ccc(F)cc1 [Example 17, N-{4-[(6,7-Dimethoxy-4-quinolyl)oxy]-2-methoxyphenyl}-N′-[(1S)-1-(4-fluorophenyl)ethyl]urea] | concentration-dependent inhibition | – | – |
| COc1cc(Oc2ccnc3cc(OC)c(OC)cc23)ccc1NC(=O)N[C@H](C)c1ccc(F)cc1 [Example 18, N-{4-[(6,7-Dimethoxy-4-quinolyl)oxy]-2-methoxyphenyl}-N′-[(1R)-1-(4-fluorophenyl)ethyl]urea] | concentration-dependent inhibition | – | – |
